Experimental data as given in US20060068503A1, “Solid support membranes for ion channel arrays and sensors: application ro rapid screening of pharmacological compounds” (priority 2004, published 2006).

Key:
[1] = target: T1, Kv1.5 K+ channels reconstituted on the SSM (Homo sapiens, UniProt P22460); experiment: Kv1.5 K+ channel current on solid supported membrane (SSM); assay type: biochemical; conditions: for IC50: SSM-reconstituted channels, -80 mV, n=3, read-out: half-maximal inhibition of Kv1.5 K+ channel current, IC50
T1 construct: expressed in transfected cells; host or cells: Ltk- cells (mouse fibroblasts), stably transfected, expression induced with 2 uM dexamethasone
Method: An Ltk-cell line (mouse fibroblast cells) stably overexpressing Kv1.5 K+ channels under control of a dexamethasone promoter is used to prepare plasma membrane vesicles. Expression of Kv1.5 is induced in Ltk-cells by addition of dexamethasone to the medium. The dexamethasone-specific induction of channel expression is totally specific for Kv1.5 channels. Cells are grown in 2 μM dexamethasone for 24 hr prior to use. The cells are centrifuged for 5 min at 1000 rpm and resuspended in 1.0 ml of 20 mM HEPES (pH 7.5), 20 mM NaCl, 100 mM KCl, 1.0 mM EDTA, 0.02% NaN3, 1 mM PMSF, 10 μg/μl leupeptin, and 50 μg/μl aprotinin. After freeze-thawing twice, the membrane fragments/vesicles are collected following centrifugation at 12,000 g for 20 min at 4 °C. Membrane vesicles are also prepared from uninduced Ltk-cells (no dexamethasone incubation) transfected with Kv1.5 K+ channel cDNA and from non-transfected Lkt-cells.
Glass slides are first plated with chromium (5 nm), and then gold (150 nm). The slide is then immersed in ethanol containing 1% octadecanethiol (w/w) for 48 hr to attach alkyl thiol groups. After cleaning the gold plated slide with anhydrous isopropanol, epoxy resin is applied to the surface of the thiol-treated gold. Defects in the epoxy resin coating are used as the experimental chamber after coating the device with a lipid monolayer. […]
Membrane vesicles containing Kv1.5 K+ channels are added to the lipid coated wells containing 125 mM KCl/10 mM K-HEPES pH 7.4. Currents are measured with an HS-2A headstage and Gene Clamp 500 amplifier (Axon Instruments). […] Voltages ranging from −80 mV to +70 mV are applied in 10 mV increments for 200 msec, and electrical currents are recorded. […] Cation selectivity is measured by removing K+ from the medium and replacing it with Na+. Currents are first measured with K+ present. SSMs are then washed with K+-free, Na+-containing medium and currents were measured with Na+ present. Currents with K+ present are re-measured. […]

Kv1.5 K+ channel = target: T2, Kv1.5 K+ channel (Homo sapiens, UniProt P22460); experiment: Whole cell patch clamp of dexamethasone-induced Kv1.5-transfected Ltk-cells; assay type: cell-based; conditions: Ltk-cells overexpressing Kv1.5, whole cell patch clamp
T2 construct: expressed in transfected cells; host or cells: Ltk- cells (mouse fibroblasts), stably transfected, expression induced with 2 uM dexamethasone
Method: Whole-cell Kv1.5 current recordings are made at room temperature via the gigaseal patch clamp technique using an Axopatch-1D amplifier (Axon Instruments, Foster City, Calif.). Ltk-cells overexpressing Kv1.5 channels are cultured for 24-72 hr, induced to express Kv1.5 channels by 24 hr incubation with 2 μM dexamethasone prior to use for patch clamp studies. Small, spherical cells approximately 10 microns in diameter are used for all patch recordings. Electrodes are made from TW-150F glass capillary tubes (World Precision Instruments, New Haven Conn.) and had resistances of 1.5-3.0 megohms when filled with internal solution containing: 110 Mm KCl, 5 mM K2ATP, 5 mM K4BAPTA, 1 mM MgCl2 and 10 mM HEPES, adjusted to pH 7.2 with KOH. The external solution contained: 130 mM NaCl, 4 mM KCl, 1.8 mM CaCl2 1 mM MgCl2, 10 mM HEPES, 10 mM glucose, adjusted to pH 7.4 with NaOH. Series resistance is compensated following rupture of the seal. Currents are sampled at 1 KHZ and filtered at 500 Hz. Cells are pulsed to +60 mV every 5 sec from a holding potential of −70 mV in 20 mV increments. […] Whole cell patch data are analyzed using Clampfit 8.0 in pCLAMP software (Axon Instruments). IC50 values for compounds are determined by nonlinear regression analysis using GraphPad Prism software (San Diego, Calif.).

T1 sequence (P22460 whole entry): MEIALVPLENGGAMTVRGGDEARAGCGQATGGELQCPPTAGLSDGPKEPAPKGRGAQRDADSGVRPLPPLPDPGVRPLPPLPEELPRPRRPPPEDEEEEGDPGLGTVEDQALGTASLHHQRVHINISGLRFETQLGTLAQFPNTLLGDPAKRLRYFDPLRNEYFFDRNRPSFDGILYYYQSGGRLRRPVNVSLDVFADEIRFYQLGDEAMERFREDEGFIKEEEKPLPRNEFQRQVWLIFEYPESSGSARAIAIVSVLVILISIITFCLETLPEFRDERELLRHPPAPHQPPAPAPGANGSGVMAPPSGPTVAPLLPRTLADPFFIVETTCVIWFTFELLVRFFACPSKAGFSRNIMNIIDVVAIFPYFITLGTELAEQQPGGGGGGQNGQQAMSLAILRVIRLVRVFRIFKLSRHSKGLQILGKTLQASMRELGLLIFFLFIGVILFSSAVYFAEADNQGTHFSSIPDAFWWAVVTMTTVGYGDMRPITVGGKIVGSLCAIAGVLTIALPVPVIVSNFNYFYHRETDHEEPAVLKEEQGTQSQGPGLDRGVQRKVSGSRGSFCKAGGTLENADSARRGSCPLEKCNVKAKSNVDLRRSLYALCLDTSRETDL
T2 sequence (P22460 whole entry): as above

Structure (SMILES) | effect on current at varying holding potentials ([1]; 100 nM, holding potentials outside the range of ±20 mV) | IC50 [1] [nM] | IC50 (Kv1.5 K+ channel) [nM]
CCc1ccc(S(=O)(=O)N[C@H]2c3cc(NC(=O)c4cccc(OC)c4)ccc3C[C@@H]2O)cc1 [Compound A, N-[(2S,3S)-3-[[(4-ethylphenyl)sulfonyl]amino]-2,3-dihydro-2-hydroxy-1H-inden-5yl]-3-methoxybenzamide] | current decreased | 218 | 170
COc1ccc(CCN2C(=O)CSC2c2ccc(C)c(C)c2)cc1 (centres unmarked) [Compound B, 2-(3,4-dimethyphenyl)-3-[2-(4-methoxyphenyl)ethyl]-thiazolidin-4-one] |  | 265 | 137
